The record followed here is patent US8053603B2, “Tetralone-based monoamine reuptake inhibitors” (Sunovion Pharmaceuticals Inc., priority 2006, dated 2011).

Read-outs that look alike come from different tables or passages of the source.

Type in all cases: cell-based
Test [1] deals with T1, recombinant human dopamine transporter (Homo sapiens, UniProt Q01959).
T1 construct: expressed in transfected cells; host or cells: CHO-K1 or HEK293
The test is described as follows: Dopamine functional uptake assay for human reuptake transporter. The note with it: [3H]dopamine uptake, CHO-K1 or HEK293 cells expressing human dopamine transporter; read-out: Human IC50 (nM) DAT. The protocol: Dopamine Functional Uptake Assay for Human Reuptake Transporter
Either CHO-K1 or HEK293 cells expressing human recombinant dopamine transporter were plated before the assay. Test compound and/or vehicle was preincubated with cells in modified HEPES buffer pH 7.1 or pH 7.4 for 20 minutes at 18 to 25° C. and 50 nM [^3H]dopamine was then added for an additional timed incubation period (10 to 30 minutes). After washing the cells to remove [^3H]dopamine not internalized, the cells were lysed, and the amount of tritium in the lysate was measured using a liquid scintillation counter to determine [^3H]dopamine uptake. Non-specific binding of tritium was measured in a control reaction containing 10 μM nomifensine, and was subtracted from the counts for assays to correct for non-specific binding of tritium. Reduction of [^3H]dopamine uptake by 50 percent or more (≧50%) relative to an uninhibited control reaction indicates significant inhibitory activity.

Test [2] addresses T2, recombinant human norepinephrine transporter (Homo sapiens, UniProt P23975).
T2 construct: expressed in transfected cells; host or cells: HEK293 or MDCK
The test is described as follows: Norepinephrine functional uptake assay for human reuptake transporter. The conditions noted are these: [3H]norepinephrine uptake, HEK293 or MDCK cells expressing human norepinephrine transporter. The protocol:
Norepinephrine Functional Uptake Assay for Human Reuptake Transporter
The cells were plated before the assay. Test compound and/or vehicle was preincubated with cells in modified HEPES buffer pH 7.1 or pH 7.4 for 20 minutes at 18 to 25° C. . […] After the cells were washed to remove [^3H]norepinephrine not internalized, the cells were lysed, and the amount of tritium in the cell lysate was measured using a liquid scintillation counter to determine [^3H]norepinephrine uptake. Non-specific binding of tritium was measured in a control reaction containing 10 μM imipramine (or 10 μM nisoxetine), and was subtracted from the counts for assays to correct for non-specific binding of tritium. Reduction of [^3H]norepinephrine uptake by 50 percent or more (≧50%) relative to an uninhibited control reaction indicates significant inhibitory activity.

Test [3] deals with T3, recombinant human serotonin transporter (Homo sapiens, UniProt P31645).
T3 construct: expressed in transfected cells; host or cells: HEK-293
As to the kind of experiment: Serotonin functional uptake assay for human reuptake transporter. The conditions noted are these: [3H]serotonin uptake, HEK-293 cells expressing human serotonin transporter; read-out: Human IC50 (nM) SERT. The protocol:
Serotonin Functional Uptake Assay for Human Reuptake Transporter
HEK-293 cells expressing human serotonin transporter were plated before the assay. […] Cells with internalized [^3H]serotonin were washed and the amount of tritium taken into cells is counted using a liquid scintillation counter to determine [^3H]serotonin uptake.

T3 sequence (P31645 whole entry): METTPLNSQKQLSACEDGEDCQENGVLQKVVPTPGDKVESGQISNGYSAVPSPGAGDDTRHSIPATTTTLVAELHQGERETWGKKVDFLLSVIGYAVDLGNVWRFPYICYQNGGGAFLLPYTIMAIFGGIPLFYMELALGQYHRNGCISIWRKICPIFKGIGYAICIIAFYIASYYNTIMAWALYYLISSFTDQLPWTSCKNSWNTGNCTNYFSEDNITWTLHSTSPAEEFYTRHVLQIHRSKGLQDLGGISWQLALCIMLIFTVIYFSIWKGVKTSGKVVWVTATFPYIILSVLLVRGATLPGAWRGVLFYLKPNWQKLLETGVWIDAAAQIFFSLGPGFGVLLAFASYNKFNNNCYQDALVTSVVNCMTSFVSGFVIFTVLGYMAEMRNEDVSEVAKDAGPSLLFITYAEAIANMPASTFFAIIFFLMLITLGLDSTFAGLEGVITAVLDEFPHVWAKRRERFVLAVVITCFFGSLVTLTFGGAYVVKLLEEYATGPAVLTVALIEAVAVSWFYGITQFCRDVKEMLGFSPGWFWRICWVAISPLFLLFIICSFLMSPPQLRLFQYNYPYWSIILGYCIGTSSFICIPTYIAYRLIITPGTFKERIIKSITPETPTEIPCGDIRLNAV
T1 sequence (Q01959 whole entry): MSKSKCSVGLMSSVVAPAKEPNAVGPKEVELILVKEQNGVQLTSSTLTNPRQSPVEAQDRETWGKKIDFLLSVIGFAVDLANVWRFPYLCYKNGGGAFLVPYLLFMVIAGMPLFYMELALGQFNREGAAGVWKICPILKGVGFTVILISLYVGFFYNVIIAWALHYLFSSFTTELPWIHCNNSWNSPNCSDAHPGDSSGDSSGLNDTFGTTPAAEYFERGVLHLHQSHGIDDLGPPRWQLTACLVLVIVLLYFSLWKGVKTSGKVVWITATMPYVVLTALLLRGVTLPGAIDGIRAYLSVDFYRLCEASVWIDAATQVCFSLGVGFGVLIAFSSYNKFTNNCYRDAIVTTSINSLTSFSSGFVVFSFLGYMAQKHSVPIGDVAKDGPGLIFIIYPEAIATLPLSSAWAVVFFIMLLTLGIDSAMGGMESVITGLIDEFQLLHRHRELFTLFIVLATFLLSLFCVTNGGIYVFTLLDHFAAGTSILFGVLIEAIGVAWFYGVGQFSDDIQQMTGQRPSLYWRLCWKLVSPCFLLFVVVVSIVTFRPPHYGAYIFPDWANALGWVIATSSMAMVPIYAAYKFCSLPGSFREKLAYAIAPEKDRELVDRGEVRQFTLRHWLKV
T2 sequence (P23975 whole entry): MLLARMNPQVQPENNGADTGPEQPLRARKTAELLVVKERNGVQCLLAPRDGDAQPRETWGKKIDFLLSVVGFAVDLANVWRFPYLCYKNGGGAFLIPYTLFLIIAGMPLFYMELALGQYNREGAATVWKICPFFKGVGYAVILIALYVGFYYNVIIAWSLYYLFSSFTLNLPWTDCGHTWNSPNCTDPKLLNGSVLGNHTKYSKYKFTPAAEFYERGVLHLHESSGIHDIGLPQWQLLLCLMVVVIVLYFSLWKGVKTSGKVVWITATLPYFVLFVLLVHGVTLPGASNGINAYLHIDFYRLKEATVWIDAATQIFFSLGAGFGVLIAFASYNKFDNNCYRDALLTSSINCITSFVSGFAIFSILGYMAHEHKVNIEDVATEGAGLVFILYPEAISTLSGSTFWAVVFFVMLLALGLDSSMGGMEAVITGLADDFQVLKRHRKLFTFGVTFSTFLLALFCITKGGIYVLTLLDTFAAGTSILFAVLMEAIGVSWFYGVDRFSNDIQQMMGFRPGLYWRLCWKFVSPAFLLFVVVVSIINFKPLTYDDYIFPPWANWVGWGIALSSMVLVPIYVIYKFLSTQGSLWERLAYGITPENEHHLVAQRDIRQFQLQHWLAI

For orientation: IC50 means the concentration needed to halve the response being measured. `CN(C)C1CC(c2ccc(Cl)c(Cl)c2)c2ccccc2C1O` (single isomer, unassigned) [Compound 23c, 4-(3,4-dichlorophenyl)-2-(dimethylamino)-1,2,3,4-tetrahydronaphthalen-1-ol]: the results for the IC50 in test [1], in test [2] (Human IC50 (nM) NET) and in test [3] were 21 nM, 36 nM and 2360 nM, respectively.
`CN(C)C1CC(c2ccc(Cl)c(Cl)c2)c2ccccc2C1O` (single isomer, unassigned) [Compound 23d, 4-(3,4-dichlorophenyl)-2-(dimethylamino)-1,2,3,4-tetrahydronaphthalen-1-ol]: the IC50 is 48 nM in test [1], 65 nM in test [2] (Human IC50 (nM) NET) and 48 nM in test [3].
Take `CN[C@H]1Cc2ccc(OC)cc2[C@@H](c2ccc(Cl)c(Cl)c2)C1` (single isomer, unassigned) [Compound 32a.1, 4-(3,4-dichlorophenyl)-6-methoxy-N-methyl-1,2,3,4-tetrahydronaphthalen-2-amine]: the IC50 in test [1] came to 1080 nM; in test [2] (read-out: Human IC50 (nM) NET), 1210 nM; in test [3] it was 162 nM.
On to `CN[C@H]1Cc2ccc(OC)cc2[C@@H](c2ccc(Cl)c(Cl)c2)C1` (single isomer, unassigned) [Compound 32a.2, 4-(3,4-dichlorophenyl)-6-methoxy-N-methyl-1,2,3,4-tetrahydronaphthalen-2-amine], for which the IC50 in test [1] came out at 415 nM; in test [2] (read-out: Human IC50 (nM) NET), 467 nM; in test [3], 130 nM.
Regarding `CN[C@H]1Cc2ccc(OC)cc2[C@@H](c2ccc(Cl)c(Cl)c2)C1` (single isomer, unassigned) [Compound 32a.4, 4-(3,4-dichlorophenyl)-6-methoxy-N-methyl-1,2,3,4-tetrahydronaphthalen-2-amine], the IC50 in test [1] was determined as 1680 nM; in test [2] (read-out: Human IC50 (nM) NET), 786 nM; in test [3], 958 nM.
With `CN[C@@H]1Cc2cccc(OC)c2[C@H](c2ccc(Cl)c(Cl)c2)C1` (single isomer, unassigned) [Compound 32b.1, 4-(3,4-dichlorophenyl)-5-methoxy-N-methyl-1,2,3,4-tetrahydronaphthalen-2-amine], the IC50 in test [1] amounted to 83 nM; in test [2] (read-out: Human IC50 (nM) NET), 2330 nM; in test [3] it was 359 nM.
For `CN[C@@H]1Cc2cccc(OC)c2[C@H](c2ccc(Cl)c(Cl)c2)C1` (single isomer, unassigned) [Compound 32b.2, 4-(3,4-dichlorophenyl)-5-methoxy-N-methyl-1,2,3,4-tetrahydronaphthalen-2-amine], the values for the IC50 in test [1], in test [2] (read-out: Human IC50 (nM) NET) and in test [3] were 496 nM, 2320 nM and 307 nM, respectively.
Take `CN[C@H]1Cc2cc(OC)ccc2[C@@H](c2ccc(Cl)c(Cl)c2)C1` (single isomer, unassigned) [Compound 32c.1, 4-(3,4-dichlorophenyl)-7-methoxy-N-methyl-1,2,3,4-tetrahydronaphthalen-2-amine]: the IC50 amounted to 18 nM in test [1], 571 nM in test [2] (read-out: Human IC50 (nM) NET) and 68 nM in test [3].
As to `CN[C@H]1Cc2cc(OC)ccc2[C@@H](c2ccc(Cl)c(Cl)c2)C1` (single isomer, unassigned) [Compound 32c.2, 4-(3,4-dichlorophenyl)-7-methoxy-N-methyl-1,2,3,4-tetrahydronaphthalen-2-amine], the IC50 was 109 nM in test [1], 112 nM in test [2] (read-out: Human IC50 (nM) NET) and 29 nM in test [3].
Take `CN[C@H]1Cc2cc(OC)ccc2[C@@H](c2ccc(Cl)c(Cl)c2)C1` (single isomer, unassigned) [Compound 32c.4, 4-(3,4-dichlorophenyl)-7-methoxy-N-methyl-1,2,3,4-tetrahydronaphthalen-2-amine]: the IC50 amounted to 78 nM in test [1], 111 nM in test [2] (read-out: Human IC50 (nM) NET) and 209 nM in test [3].
As for `COc1ccc2c(c1)C(c1ccc(Cl)c(Cl)c1)CC(N(C)C)C2` (single isomer, unassigned) [Compound 33a.1, 4-(3,4-dichlorophenyl)-6-methoxy-N,N-dimethyl-2,3,4-tetrahydronaphthalen-2-amine], the IC50 was 781 nM in test [1], 2310 nM in test [2] (read-out: Human IC50 (nM) NET) and 475 nM in test [3].
In the case of `COc1ccc2c(c1)C(c1ccc(Cl)c(Cl)c1)CC(N(C)C)C2` (single isomer, unassigned) [Compound 33a.2, 4-(3,4-dichlorophenyl)-6-methoxy-N,N-dimethyl-2,3,4-tetrahydronaphthalen-2-amine], the IC50 was found to be 396 nM in test [1], 2260 nM in test [2] (read-out: Human IC50 (nM) NET) and 156 nM in test [3].
For `COc1ccc2c(c1)C(c1ccc(Cl)c(Cl)c1)CC(N(C)C)C2` (single isomer, unassigned) [Compound 33a.3, 4-(3,4-dichlorophenyl)-6-methoxy-N,N-dimethyl-2,3,4-tetrahydronaphthalen-2-amine], the IC50 in test [1] stood at 2290 nM; in test [2] (read-out: Human IC50 (nM) NET), 1170 nM; in test [3], 207 nM.
`COc1ccc2c(c1)C(c1ccc(Cl)c(Cl)c1)CC(N(C)C)C2` (single isomer, unassigned) [Compound 33a.4, 4-(3,4-dichlorophenyl)-6-methoxy-N,N-dimethyl-2,3,4-tetrahydronaphthalen-2-amine]: the IC50 turned out to be 1410 nM in test [1], 1700 nM in test [2] (read-out: Human IC50 (nM) NET) and 808 nM in test [3].
With `COc1ccc2c(c1)C[C@H](N(C)C)C[C@@H]2c1ccc(Cl)c(Cl)c1` (single isomer, unassigned) [Compound 33c.1, 4-(3,4-dichlorophenyl)-7-methoxy-N,N-dimethyl-1,2,3,4-tetrahydronaphthalen-2-amine], the IC50 in test [1] is 194 nM; in test [2] (read-out: Human IC50 (nM) NET), 943 nM; in test [3] it was 24 nM.
As for `COc1ccc2c(c1)C[C@H](N(C)C)C[C@@H]2c1ccc(Cl)c(Cl)c1` (single isomer, unassigned) [Compound 33c.2, 4-(3,4-dichlorophenyl)-7-methoxy-N,N-dimethyl-1,2,3,4-tetrahydronaphthalen-2-amine], the concentration for half-maximal inhibition (IC50) in test [1] amounted to 67 nM; in test [2] (read-out: Human IC50 (nM) NET) it was 684 nM; in test [3], 8 nM.
`COc1ccc2c(c1)C[C@H](N(C)C)C[C@@H]2c1ccc(Cl)c(Cl)c1` (single isomer, unassigned) [Compound 33c.3, 4-(3,4-dichlorophenyl)-7-methoxy-N,N-dimethyl-1,2,3,4-tetrahydronaphthalen-2-amine]: the IC50 in test [1] is 83 nM; in test [2] (read-out: Human IC50 (nM) NET), 906 nM; in test [3], 616 nM.
The corresponding values for `COc1ccc2c(c1)C[C@H](N(C)C)C[C@@H]2c1ccc(Cl)c(Cl)c1` (single isomer, unassigned) [Compound 33c.4, 4-(3,4-dichlorophenyl)-7-methoxy-N,N-dimethyl-1,2,3,4-tetrahydronaphthalen-2-amine] are 224 nM, 1900 nM and 92 nM.
Take `CN(C)[C@H]1CCc2ccccc2[C@H]1c1ccc(Cl)c(Cl)c1` (single isomer, unassigned) [Compound 37a, 1-(3,4-dichlorophenyl)-N,N-dimethyl-1,2,3,4-tetrahydronaphthalen-2-amine]: the values for the IC50 in test [1], in test [2] (read-out: Human IC50 (nM) NET) and in test [3] were 235 nM, 2380 nM and 355 nM, respectively.
`CN(C)[C@H]1CCc2ccccc2[C@H]1c1ccc(Cl)c(Cl)c1` (single isomer, unassigned) [Compound 37b, 1-(3,4-dichlorophenyl)-N,N-dimethyl-1,2,3,4-tetrahydronaphthalen-2-amine]: the IC50 in test [1] worked out at 106 nM; in test [2] (read-out: Human IC50 (nM) NET), 499 nM; in test [3], 742 nM.
As to `CN(C)[C@H]1CCc2ccccc2[C@H]1c1ccc(Cl)c(Cl)c1` (single isomer, unassigned) [Compound 37c, 1-(3,4-dichlorophenyl)-N,N-dimethyl-1,2,3,4-tetrahydronaphthalen-2-amine], the IC50 in test [1] came out at 284 nM; in test [2] (read-out: Human IC50 (nM) NET), 1190 nM; in test [3], 70 nM.
As to `CN(C)[C@H]1CCc2ccccc2[C@H]1c1ccc(Cl)c(Cl)c1` (single isomer, unassigned) [Compound 37d, 1-(3,4-dichlorophenyl)-N,N-dimethyl-1,2,3,4-tetrahydronaphthalen-2-amine], the IC50 in test [1] was determined as 36 nM; in test [2] (read-out: Human IC50 (nM) NET), 1010 nM; in test [3], 3150 nM.
